Data on 1 molecule can be found in patent US20120149678A1, “Organonitro Compounds for Use in Treating Non-Hodgkin's Lymphoma and Leukemia, and Methods Relating Thereto” (priority 2010, published 2012).

This experiment has as its system B-cell lymphoma Daudi cells. As to the kind of experiment: ABDNAZ-induced apoptosis of B-cell lymphoma Daudi cells (sub-G1 cells, propidium iodide staining, flow cytometry). It counts as cell-based. The protocol: B-cell lymphoma Daudi cells were grown and maintained in Dulbecco's modified essential medium (DMEM) (INVITROGEN™, Grand Island, N.Y.) supplemented with 10% fetal calf serum, 100 units/mL penicillin, and 100 μg/mL streptomycin in a 37° C. humidified incubator with a mixture of 95% air and 5% CO2. Experiments were performed on exponentially growing cells with a cell population doubling time of approximately 20-36 hours.
After exposing the B-cell lymphoma Daudi cells to ABDNAZ, apoptotic cell death was quantitated by measuring the number of subdiploid (sub-G1) cells stained with propidium iodide (PI), according to a procedure described previously by Ning and coworkers. Ning, S., and Knox, S. J. in Int. J. Radiat. Oncol. Biol. Phys. (2004) 60:197-203. Briefly, ABDNAZ-treated and untreated control cells were collected and fixed with cold 100% ethanol. Cells were pelleted, treated with 100 μg/mL of RNase A in PBS-EDTA solution for 30 min and stained with 50 μg/mL of PI for 10 min at room temperature. The DNA content was analyzed with a FACScan flowcytometer (Becton Dickison, San Jose, Calif.). The percentage of cells in the sub-G1 phase was calculated as described previously by Ning and coworkers.
To examine whether ABDNAZ-induced apoptotic cell death was due to the generation of reactive oxygen species (ROS), Daudi cells were treated with a glutathione (GSH) precursor, N-acetylcysteine (NAC), and a GSH synthesis inhibitor, buthionine-(S,R)-sulfoxime (BSO), and the level of apoptosis was measured.
(In general: A flow cytometer gives signals particle by particle.)

Structures are written as SMILES.

`O=C(CBr)N1CC([N+](=O)[O-])([N+](=O)[O-])C1` [ABDNAZ, 1-bromoacetyl-3,3-dinitroazetidine]: the Daudi cell apoptosis came to 30% (2 mM ABDNAZ, measured at 24 hours (FIG. 1)) and 45% (4 mM ABDNAZ, measured at 72 hours after exposure (FIG. 1)). The ABDNAZ-induced apoptosis (Daudi cells pre-treated with N-acetylcysteine (GSH precursor) (FIG. 2)) was 5%; the ABDNAZ-induced apoptosis (Daudi cells pre-treated with buthionine-(S,R)-sulfoxime (GSH synthesis inhibitor) (FIG. 2)) was 25%; the ABDNAZ-induced apoptosis (Daudi cells, ABDNAZ without pre-treatment (FIG. 2)) was found to be 11%.
